In BindingDB's records for doi:10.1016/S0014-827X(03)00113-7 (Universit&Aagrove, 2003):

What was measured:
[1] = molecular target: T1, Muscarinic acetylcholine receptor M5 (Homo sapiens, UniProt P08912)
T1 sequence (P08912 whole entry): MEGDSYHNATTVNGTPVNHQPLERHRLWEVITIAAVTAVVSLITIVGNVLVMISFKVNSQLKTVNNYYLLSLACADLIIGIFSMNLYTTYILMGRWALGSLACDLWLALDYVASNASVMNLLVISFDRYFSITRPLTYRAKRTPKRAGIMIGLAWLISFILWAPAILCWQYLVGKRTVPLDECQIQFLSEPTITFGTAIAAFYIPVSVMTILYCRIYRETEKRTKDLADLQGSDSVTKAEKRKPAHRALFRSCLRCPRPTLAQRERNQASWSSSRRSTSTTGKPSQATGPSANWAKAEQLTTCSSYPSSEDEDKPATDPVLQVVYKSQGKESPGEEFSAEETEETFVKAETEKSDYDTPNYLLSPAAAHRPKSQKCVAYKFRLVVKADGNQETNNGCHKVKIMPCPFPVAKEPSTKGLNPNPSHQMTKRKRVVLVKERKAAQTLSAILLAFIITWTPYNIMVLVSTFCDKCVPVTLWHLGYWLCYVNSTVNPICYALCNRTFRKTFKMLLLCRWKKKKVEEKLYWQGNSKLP

[2] = molecular target: T2, Muscarinic acetylcholine receptor M2 (Homo sapiens, UniProt P08172)
T2 sequence (P08172 whole entry): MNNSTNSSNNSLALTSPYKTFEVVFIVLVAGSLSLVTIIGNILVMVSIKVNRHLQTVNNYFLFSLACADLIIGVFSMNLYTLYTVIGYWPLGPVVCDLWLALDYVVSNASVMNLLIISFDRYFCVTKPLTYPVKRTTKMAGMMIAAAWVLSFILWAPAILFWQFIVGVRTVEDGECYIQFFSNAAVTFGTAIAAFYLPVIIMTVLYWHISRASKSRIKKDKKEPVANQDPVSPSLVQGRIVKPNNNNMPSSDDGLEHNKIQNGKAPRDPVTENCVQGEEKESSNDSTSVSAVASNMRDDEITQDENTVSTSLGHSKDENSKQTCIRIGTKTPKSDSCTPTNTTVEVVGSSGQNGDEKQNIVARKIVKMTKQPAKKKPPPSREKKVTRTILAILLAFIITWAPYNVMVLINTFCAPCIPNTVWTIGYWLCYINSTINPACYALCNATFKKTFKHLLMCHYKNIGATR

[3] = molecular target: Muscarinic acetylcholine receptor M3 (Homo sapiens, UniProt P20309)
Muscarinic acetylcholine receptor M3, sequence (P20309 whole entry): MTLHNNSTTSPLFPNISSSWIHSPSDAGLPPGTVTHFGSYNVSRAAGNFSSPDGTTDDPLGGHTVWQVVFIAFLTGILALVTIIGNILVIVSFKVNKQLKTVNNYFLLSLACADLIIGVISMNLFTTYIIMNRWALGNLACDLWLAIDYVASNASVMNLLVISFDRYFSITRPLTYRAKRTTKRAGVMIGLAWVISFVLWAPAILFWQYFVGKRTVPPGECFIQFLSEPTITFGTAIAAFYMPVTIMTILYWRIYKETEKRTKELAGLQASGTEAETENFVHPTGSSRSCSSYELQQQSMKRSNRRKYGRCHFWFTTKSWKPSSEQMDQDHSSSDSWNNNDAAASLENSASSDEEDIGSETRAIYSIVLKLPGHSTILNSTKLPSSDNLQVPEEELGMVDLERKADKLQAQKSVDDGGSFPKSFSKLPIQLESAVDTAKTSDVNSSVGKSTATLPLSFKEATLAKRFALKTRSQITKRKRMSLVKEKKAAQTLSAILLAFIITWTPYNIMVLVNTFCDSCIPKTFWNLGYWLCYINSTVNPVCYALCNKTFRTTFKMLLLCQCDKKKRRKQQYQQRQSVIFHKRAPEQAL

| SMILES | Ki [1] | Ki [2] | Ki [3] |
| --- | --- | --- | --- |
| Cc1n(CC#CCN2OCCC2=O)cc[n+]1C [2-[4-(2,3-Dimethyl-1H-imidazolium-1-yl)-2-butynyl]isoxazolidin-3-one iodide] | 0.132 µM | 0.275 µM | 0.0759 µM |
| Cc1nccn1CC#CCOC1=NOCC1 [3-[4-(2-Methyl-1H-imidazol-1-yl)-2-butynyl]oxy-delta2-isoxazoline sesquifumarate] | 0.00617 µM | 0.00363 µM | 0.00251 µM |
| Cc1nccn1CC#CCOc1ccon1 [3-[4-(2-Methyl-1H-imidazol-1-yl)-2-butynyl]oxyisoxazole sesquifumarate] | 0.209 µM | 0.282 µM | 0.11 µM |
| Cc1n(CC#CCOC2=NOCC2)cc[n+]1C [NSC_0] | 0.0513 µM | 0.0933 µM | 0.00631 µM |
| Cc1n(CC#CCOc2ccon2)cc[n+]1-c1ccc(Br)cc1 [NSC_0] | 0.0603 µM | 0.112 µM | 0.017 µM |
| Cc1nccn1CC#CCN1OCCC1=O [NSC_0] | 0.00051 µM | 0.0724 µM | 0.102 µM |
